Activity calls are given as the source filed them.
Key:
[1] = target: T1, Heat shock factor protein 1 (Mus musculus, UniProt P38532); test: enhancement of HSF1-driven luciferase signal – cell-based, NIH3T3, luminescence, dose retest, confirmation (AID 435004); assay type: functional;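 further: stress induced by proteasome inhibitor MG132 added 30 min after compound; luciferase reporter driven by HSF1 response element in NIH3T3 cells; actives raise luminescence as potentiators of the MG132 stress response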
T1 sequence (P38532 whole entry): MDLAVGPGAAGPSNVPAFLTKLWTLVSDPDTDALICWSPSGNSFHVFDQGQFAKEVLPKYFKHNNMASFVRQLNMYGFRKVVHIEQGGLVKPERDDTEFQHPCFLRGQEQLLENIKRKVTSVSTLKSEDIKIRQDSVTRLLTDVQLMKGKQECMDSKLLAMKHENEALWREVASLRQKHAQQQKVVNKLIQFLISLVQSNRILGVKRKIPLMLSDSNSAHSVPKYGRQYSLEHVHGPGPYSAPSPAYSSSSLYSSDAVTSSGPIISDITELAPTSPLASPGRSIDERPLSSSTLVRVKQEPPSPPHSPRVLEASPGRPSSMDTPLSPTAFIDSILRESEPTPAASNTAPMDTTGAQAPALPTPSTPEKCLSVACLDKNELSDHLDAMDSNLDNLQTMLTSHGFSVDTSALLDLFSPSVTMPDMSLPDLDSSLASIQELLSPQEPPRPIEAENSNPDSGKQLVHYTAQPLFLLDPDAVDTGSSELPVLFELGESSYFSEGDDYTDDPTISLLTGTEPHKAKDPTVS

[2] = target: Beta-2 adrenergic receptor (Homo sapiens, UniProt P07550); test: ADRB2 activation measured by internalization – cell-based, FAP fluorogen, flow cytometry, cherry pick 1, dose response (AID 588763); assay type: functional
Beta-2 adrenergic receptor, sequence (P07550 whole entry): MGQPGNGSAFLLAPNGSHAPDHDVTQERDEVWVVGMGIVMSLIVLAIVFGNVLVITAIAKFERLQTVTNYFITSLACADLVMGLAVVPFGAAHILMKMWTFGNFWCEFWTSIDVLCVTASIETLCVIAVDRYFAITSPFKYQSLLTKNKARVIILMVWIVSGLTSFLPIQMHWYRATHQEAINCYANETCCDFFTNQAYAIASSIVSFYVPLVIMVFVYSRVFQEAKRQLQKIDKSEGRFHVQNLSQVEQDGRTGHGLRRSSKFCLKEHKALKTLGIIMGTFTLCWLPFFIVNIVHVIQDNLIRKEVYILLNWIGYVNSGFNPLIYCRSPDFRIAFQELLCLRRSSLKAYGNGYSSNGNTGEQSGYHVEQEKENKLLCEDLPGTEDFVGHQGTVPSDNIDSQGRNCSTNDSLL

Mucolipin-3 = target: T2, Mucolipin-3 (Homo sapiens, UniProt Q8TDD5); test: Dose response cell-based high-throughput screening assay for agonists of the transient receptor potential channel ML3 (TRPML3). [Related pubchem assays: 1526, 1424, 1448 ]; assay type: functional
T2 sequence (Q8TDD5 whole entry): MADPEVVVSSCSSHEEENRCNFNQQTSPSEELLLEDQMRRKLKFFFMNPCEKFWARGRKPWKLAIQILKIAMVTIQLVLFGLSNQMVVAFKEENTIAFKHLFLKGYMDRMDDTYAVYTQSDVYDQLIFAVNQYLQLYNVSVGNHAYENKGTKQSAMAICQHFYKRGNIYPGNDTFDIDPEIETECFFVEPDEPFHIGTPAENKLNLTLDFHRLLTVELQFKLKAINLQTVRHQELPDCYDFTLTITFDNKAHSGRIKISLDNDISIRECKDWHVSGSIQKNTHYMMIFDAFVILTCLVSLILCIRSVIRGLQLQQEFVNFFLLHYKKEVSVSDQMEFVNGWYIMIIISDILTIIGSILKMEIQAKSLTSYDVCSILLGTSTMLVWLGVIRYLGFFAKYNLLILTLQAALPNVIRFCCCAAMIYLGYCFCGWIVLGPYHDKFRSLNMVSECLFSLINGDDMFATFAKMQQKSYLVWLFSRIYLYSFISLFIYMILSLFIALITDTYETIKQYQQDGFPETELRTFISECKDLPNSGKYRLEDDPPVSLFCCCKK

Ion channel NompC = Ion channel NompC (Danio rerio, UniProt Q7T1G6); test: Fluorescence counterscreen assay for TRPML3 agonists: dose response cell-based high-throughput screening assay to identify agonists of the transient receptor potential channel N1 (TRPN1). [Related pubchem assays: 1526, 1424, 1448 ]; assay type: functional
Ion channel NompC, sequence (Q7T1G6 whole entry): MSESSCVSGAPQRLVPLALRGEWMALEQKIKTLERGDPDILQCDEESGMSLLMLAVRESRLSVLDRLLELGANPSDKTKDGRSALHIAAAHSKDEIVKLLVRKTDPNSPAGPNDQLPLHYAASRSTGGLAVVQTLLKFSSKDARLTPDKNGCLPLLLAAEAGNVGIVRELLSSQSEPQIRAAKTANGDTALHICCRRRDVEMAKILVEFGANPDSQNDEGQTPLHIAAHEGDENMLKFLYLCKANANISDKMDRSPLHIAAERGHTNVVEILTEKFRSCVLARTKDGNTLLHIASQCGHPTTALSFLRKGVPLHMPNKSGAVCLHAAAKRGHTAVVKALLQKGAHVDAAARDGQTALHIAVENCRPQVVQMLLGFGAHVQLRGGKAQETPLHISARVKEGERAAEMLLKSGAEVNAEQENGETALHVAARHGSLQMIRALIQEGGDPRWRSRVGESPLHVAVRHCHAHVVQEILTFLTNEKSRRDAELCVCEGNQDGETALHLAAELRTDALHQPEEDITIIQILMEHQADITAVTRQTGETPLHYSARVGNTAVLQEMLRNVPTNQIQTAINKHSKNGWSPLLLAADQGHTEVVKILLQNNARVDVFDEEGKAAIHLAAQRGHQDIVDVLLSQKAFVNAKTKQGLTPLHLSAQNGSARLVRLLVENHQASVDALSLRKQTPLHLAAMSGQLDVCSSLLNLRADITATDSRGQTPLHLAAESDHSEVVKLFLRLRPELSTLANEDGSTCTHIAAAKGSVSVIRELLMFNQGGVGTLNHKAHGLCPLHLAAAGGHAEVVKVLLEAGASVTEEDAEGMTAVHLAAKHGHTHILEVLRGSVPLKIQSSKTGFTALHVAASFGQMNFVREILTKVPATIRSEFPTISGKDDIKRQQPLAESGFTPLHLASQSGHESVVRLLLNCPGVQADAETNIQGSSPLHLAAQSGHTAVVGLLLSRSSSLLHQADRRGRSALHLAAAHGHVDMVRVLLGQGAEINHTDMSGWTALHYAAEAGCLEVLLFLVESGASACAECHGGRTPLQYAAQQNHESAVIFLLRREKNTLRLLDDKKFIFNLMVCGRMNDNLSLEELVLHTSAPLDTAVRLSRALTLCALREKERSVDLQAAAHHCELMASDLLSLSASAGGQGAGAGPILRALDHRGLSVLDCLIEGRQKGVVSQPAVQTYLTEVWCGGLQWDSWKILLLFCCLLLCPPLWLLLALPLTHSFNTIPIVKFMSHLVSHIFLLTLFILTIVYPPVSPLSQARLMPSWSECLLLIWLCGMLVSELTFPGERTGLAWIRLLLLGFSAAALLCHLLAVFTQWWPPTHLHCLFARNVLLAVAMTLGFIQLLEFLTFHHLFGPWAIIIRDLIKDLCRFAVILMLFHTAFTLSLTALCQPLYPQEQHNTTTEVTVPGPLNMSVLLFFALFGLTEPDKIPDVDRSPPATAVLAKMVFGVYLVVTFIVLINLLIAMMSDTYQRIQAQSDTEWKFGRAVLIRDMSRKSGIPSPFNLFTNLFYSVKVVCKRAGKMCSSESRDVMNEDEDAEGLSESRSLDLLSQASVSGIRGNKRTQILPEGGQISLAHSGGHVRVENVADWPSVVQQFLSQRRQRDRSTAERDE

HEK293 [3] = test: cells; details: Homo sapiens
HEK293 [4] = test: cells; details: Homo sapiens; remark: listed apart in the source
BJ [5] = test: BJ-TERT fibroblast viability loss – cell-based, RAS-independent, luminescence, dose response (AID 1933); assay type: functional; details: Homo sapiens
[6] = target: T1, Heat shock factor protein 1; test: decrease of HSF1-responsive luciferase luminescence – cell-based, NIH3T3, dose retest, confirmation (AID 2382); assay type: functional;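 further: NIH3T3 fibroblasts with HSF1-driven luciferase reporter stressed by proteasome inhibitor MG132; luminescence from HSF1-driven luciferase expression after 8 hours of MG132 stress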
BJ [7] = test: cells; assay type: functional, cell-based; details: Homo sapiens
BJ [8] = test: BJ-TERT-LT-ST fibroblast viability loss – cell-based, RAS-independent, luminescence, dose response (AID 1935); assay type: functional; details: Homo sapiens;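 further: BJ fibroblasts immortalized with TERT plus LT and ST oncogenes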
[9] = DRD fibroblast viability loss – cell-based, non-viral oncogenic, luminescence, dose response (AID 1934); assay type: functional; details: Homo sapiens
BJ [10] = test: growth inhibition of engineered Ras-driven BJ cells – cell-based, alamar blue fluorescence, cherrypicked samples, dose response (AID 2631); assay type: functional; details: Homo sapiens;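 further: confirmatory dose-response assay in RAS-dependent BJ fibroblasts engineered with TERT, LT and ST, with cytotoxicity read by fluorescence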
[11] = viability of uninfected HEp-2 cells – cell-based, HTS, cytotoxicity control for RSV inhibitor project, dose response (AID 2410); assay type: functional; details: human respiratory syncytial virus
[12] = target: Delta-type opioid receptor (Homo sapiens, UniProt P41143); test: Counterscreen for agonists of heterodimerization of the mu 1 (OPRM1) and delta 1 (OPRD1) opioid receptors: Luminescence-based cell-based high throughput dose response assay to identify agonists of OPRD1 homodimerization. [Related pubchem assays (depositor defined):AID504326, AID504355, AID504692, AID504904, AID504905]; assay type: functional
Delta-type opioid receptor, sequence (P41143 whole entry): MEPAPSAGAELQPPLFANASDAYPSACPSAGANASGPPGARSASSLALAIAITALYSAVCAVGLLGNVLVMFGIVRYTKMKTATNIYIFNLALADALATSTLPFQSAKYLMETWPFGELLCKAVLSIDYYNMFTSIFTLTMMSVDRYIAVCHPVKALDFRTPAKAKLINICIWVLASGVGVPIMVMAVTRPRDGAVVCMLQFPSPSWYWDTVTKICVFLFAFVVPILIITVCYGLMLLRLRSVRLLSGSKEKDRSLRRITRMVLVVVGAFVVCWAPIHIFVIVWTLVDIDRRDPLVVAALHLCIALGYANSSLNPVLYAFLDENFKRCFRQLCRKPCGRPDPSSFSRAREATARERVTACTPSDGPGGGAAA

Mu-type opioid receptor = Mu-type opioid receptor (Homo sapiens, UniProt P35372); test: Counterscreen for agonists of heterodimerization of the mu 1 (OPRM1) and delta 1 (OPRD1) opioid receptors: Luminescence-based cell-based high throughput dose response assay to identify agonists of OPRM1 homodimerization.; assay type: functional;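 further: U2OS cells expressing OPRM1 and beta-arrestin as split beta-galactosidase partners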
Mu-type opioid receptor, sequence (P35372 whole entry): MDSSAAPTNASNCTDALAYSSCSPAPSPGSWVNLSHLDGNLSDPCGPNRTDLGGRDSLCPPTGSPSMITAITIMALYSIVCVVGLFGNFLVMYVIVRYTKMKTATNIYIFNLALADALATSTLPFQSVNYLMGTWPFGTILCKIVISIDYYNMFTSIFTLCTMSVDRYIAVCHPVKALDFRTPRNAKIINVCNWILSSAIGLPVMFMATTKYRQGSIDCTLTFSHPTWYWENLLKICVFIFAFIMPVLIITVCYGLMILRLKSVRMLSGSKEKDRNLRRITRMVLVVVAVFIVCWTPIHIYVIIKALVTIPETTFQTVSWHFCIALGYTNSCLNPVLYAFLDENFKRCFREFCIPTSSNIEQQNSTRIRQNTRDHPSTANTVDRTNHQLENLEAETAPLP

[13] = target: 5-hydroxytryptamine receptor 5A (Homo sapiens, UniProt P47898); test: Counterscreen for agonists of OPRM1-OPRD1 heterodimerization: luminescence-based cell-based high throughput dose response assay to identify agonists of 5-hydroxytryptamine (serotonin) 5A receptor (HTR5A). [Related pubchem assays (depositor defined):AID504326, AID504355, AID504692, AID504904, AID504905]; assay type: functional
5-hydroxytryptamine receptor 5A, sequence (P47898 whole entry): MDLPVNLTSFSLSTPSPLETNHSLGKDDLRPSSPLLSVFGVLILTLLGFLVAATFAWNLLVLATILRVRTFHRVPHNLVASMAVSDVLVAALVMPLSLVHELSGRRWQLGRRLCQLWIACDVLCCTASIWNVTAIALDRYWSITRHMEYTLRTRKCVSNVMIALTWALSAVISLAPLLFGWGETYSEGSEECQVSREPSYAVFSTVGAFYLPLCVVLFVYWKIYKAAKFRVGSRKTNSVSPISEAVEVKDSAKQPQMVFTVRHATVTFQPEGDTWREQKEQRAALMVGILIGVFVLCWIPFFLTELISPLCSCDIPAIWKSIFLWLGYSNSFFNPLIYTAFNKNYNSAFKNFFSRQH

Cytochrome P450 1A2 = target: T3, Cytochrome P450 1A2 (Homo sapiens, UniProt P05177);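 further: PubChem cytochrome P450 panel assay, CYP1A2 panel member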
T3 sequence (P05177 whole entry): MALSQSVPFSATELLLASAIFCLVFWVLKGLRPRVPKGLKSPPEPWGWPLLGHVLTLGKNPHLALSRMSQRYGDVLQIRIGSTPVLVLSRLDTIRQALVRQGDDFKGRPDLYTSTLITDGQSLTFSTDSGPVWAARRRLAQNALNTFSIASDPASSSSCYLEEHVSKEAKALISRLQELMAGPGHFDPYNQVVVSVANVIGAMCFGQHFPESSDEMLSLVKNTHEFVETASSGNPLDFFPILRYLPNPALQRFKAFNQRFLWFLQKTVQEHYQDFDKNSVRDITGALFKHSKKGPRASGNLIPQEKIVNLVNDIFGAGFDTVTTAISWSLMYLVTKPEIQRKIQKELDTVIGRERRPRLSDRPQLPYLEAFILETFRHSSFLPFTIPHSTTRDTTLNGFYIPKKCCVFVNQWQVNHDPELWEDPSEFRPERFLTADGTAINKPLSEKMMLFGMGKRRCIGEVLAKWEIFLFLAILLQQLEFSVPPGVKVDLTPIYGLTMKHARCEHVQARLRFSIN

Escherichia coli = test: microbe, parasite or virus in culture

O=C(CSc1nnc(-c2ccncc2)n1Cc1ccco1)N1c2ccccc2Sc2ccc(Cl)cc21
EC50 [1]: 27.3 µM (active) | EC50 [2]: 0.343 µM (active)

CC(=O)Nc1ccc(-c2nnc(SCc3ccc(C)cc3)n2C)cc1
EC50 [2]: 3.6 µM (active)

COc1ccc(C(C)(C)C)cc1NC(=O)c1cc(S(=O)(=O)N(C)C)ccc1N1CCCC1
EC50 (Mucolipin-3): > 29.9 µM (not active) | EC50 (Ion channel NompC): > 29.9 µM (not active) | EC50 (HEK293 [3]): > 59.6 µM (inactive) | EC50 (HEK293 [4]): > 59.6 µM (inactive)

Nc1nc(CCl)nc(Nc2cccc3ccccc23)n1
EC50 (BJ [5]): 0.288 µM (active) | EC50 [6]: 3.74 µM (active) | EC50 (BJ [7]): 2.73 µM (inconclusive) | EC50 (BJ [8]): 9.87 µM (inconclusive) | EC50 [9]: 1.98 µM (active) | EC50 (BJ [10]): 6.34 µM (active)

CC(C)c1ccc(NC(=O)N(CCc2nc3ccccc3[nH]2)C2CCCC2)cc1
CC50 [11]: 35.4 µM (active) | EC50 [6]: > 195 µM (not active) | EC50 [12]: > 92.4 µM (inactive) | EC50 (Mu-type opioid receptor): > 92.4 µM (inactive) | EC50 [13]: > 92.4 µM (inactive) | AC50 (Cytochrome P450 1A2): 11.2 µM (inconclusive)

COc1cc(NC(=O)C2CC(=O)NC3=C2C(=O)CC(C)(C)C3)c(OC)cc1Cl (stereo not given)
AC50 (Escherichia coli): 24.1 µM (active)

Reference: ChEMBL document CHEMBL1201862, “PubChem BioAssay data set” (2004)
